Assay results reported in ChEMBL document CHEMBL1139987 (Bioorg Med Chem Lett, 2007).

How the values were obtained:
[1] = biological target: Insulin-like growth factor 1 receptor (Homo sapiens, UniProt P08069); test: Inhibition of IGF1R
[2] = tested on: MCF7; test: Inhibition of IGF1 mediated cell growth in MCF7 cells; conditions: Homo sapiens
[3] = biological target: T1, Polyunsaturated fatty acid lipoxygenase ALOX15 (Homo sapiens, UniProt P16050)
T1 sequence (P16050 whole entry): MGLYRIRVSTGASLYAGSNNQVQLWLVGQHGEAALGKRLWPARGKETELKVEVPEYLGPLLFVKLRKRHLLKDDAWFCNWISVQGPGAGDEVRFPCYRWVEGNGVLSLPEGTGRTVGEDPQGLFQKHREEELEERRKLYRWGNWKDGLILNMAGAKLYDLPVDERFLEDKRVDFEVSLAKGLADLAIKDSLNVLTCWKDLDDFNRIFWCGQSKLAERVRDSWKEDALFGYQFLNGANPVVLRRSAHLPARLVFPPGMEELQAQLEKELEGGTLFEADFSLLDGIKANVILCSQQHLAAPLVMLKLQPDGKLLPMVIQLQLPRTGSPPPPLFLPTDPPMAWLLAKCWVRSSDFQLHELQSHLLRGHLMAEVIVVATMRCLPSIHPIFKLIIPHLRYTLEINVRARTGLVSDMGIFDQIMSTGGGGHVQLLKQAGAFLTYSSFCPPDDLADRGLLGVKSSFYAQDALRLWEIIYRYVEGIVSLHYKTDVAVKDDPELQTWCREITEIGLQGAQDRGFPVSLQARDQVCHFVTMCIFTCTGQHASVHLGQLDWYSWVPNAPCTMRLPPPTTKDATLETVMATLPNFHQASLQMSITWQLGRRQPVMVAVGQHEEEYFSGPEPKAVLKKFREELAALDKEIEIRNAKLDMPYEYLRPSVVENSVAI

Sequence of Insulin-like growth factor 1 receptor (P08069 31-736 limits assumed): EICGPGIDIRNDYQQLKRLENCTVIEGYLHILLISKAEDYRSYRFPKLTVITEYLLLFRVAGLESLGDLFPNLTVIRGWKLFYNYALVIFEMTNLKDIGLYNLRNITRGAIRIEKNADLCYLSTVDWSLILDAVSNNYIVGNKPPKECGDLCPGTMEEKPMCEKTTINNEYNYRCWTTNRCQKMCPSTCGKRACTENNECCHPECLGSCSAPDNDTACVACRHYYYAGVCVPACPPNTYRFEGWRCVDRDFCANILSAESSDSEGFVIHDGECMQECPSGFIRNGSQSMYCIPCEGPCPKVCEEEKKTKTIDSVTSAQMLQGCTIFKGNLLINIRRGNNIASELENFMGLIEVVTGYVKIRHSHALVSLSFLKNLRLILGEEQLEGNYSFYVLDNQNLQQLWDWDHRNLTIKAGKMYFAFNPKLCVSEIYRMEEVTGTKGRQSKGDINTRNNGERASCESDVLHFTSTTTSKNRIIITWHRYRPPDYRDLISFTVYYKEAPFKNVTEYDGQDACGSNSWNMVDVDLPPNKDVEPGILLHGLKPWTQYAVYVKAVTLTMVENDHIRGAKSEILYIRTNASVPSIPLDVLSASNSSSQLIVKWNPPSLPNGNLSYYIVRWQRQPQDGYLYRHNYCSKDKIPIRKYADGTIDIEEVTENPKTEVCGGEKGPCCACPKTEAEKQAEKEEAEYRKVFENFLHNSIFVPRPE
Sequence of Insulin-like growth factor 1 receptor (P08069 741-1367 limits assumed): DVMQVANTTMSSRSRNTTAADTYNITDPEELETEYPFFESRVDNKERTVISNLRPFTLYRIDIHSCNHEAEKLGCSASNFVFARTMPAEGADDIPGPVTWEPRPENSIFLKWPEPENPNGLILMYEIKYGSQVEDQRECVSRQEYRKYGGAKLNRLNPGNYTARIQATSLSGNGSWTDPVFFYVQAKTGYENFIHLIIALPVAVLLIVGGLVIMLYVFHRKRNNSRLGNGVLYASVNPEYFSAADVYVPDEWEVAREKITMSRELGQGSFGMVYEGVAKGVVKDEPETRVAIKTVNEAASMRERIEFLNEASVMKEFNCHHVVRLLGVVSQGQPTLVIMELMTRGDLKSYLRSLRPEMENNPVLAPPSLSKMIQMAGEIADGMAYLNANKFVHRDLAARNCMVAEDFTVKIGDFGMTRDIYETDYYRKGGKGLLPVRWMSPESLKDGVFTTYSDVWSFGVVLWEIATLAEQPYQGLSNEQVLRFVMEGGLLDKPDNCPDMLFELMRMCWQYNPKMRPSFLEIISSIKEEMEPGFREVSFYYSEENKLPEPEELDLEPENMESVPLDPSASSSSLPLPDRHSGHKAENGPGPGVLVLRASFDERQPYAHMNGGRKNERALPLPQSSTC

Oc1ccc(CCCCc2ccc(Cl)c(Cl)c2)cc1O
IC50 [1]: 1 µM
IC50 [2]: 21.5 µM

COc1ccc(CCCCc2ccc(O)c(O)c2)cc1
IC50 [2]: 15.7 µM

Oc1ccc(CCCCc2ccccc2)cc1O
IC50 [2]: 11.2 µM
IC50 [3]: 7.3 µM

Oc1ccc(CCCCc2ccc(O)c(O)c2)cc1O
IC50 [1]: 0.6 µM
IC50 [2]: 25.4 µM
IC50 [3]: 3.9 µM

Oc1ccc(CCCCc2ccc(O)c(O)c2)cc1
IC50 [1]: 1 µM
IC50 [2]: 36.2 µM
IC50 [3]: 9.4 µM

Oc1cc2c(cc1O)C(c1ccccc1)CCC2 (stereo not drawn)
IC50 [1]: 1 µM
IC50 [2]: 12.3 µM

Cc1ccc(CCCCc2ccc(O)c(O)c2)cc1
IC50 [1]: 0.8 µM
IC50 [2]: 15.1 µM

CC(Cc1ccc(O)c(O)c1)C(C)Cc1ccc(O)c(O)c1 (stereo not drawn) [NORDIHYDROGUAIARETIC ACID]
IC50 [2]: 24.6 µM

Oc1ccc(CCCCc2ccc(Cl)cc2)cc1O
IC50 [1]: 0.8 µM
IC50 [2]: 13.4 µM
